Reference: patent US7982043B2, “Protein tyrosine kinase enzyme inhibitors” (Wyeth LLC, priority 2003, dated 2011)
Values after ≈ are worked out from the molar mass of the structure shown. Where two headings read alike, the source gives them in different places.

Columns and labels:
Assay type in all cases: cell-based
[1] = target: mouse fibroblast cell line transfected with the HER-2 oncogene (3T3/neu) (UniProt P04626, cells depend on it, species not given); test: Cell proliferation assay (SRB), 3T3/neu; settings: EGFR −, Her-2 +++; 2 days, SRB; read-out: CELL IC50 3T3/NEU (converted)
A431 cells = test: Cell proliferation assay (SRB), A431; settings: Homo sapiens, A-431, 48 h, read-out: CELL IC50 A431
SK-Br-3 cells = test: Cell proliferation assay (SRB), SK-Br-3; settings: Homo sapiens, SK-BR-3, 48 h; EGFR −, Her-2 +++; 2 days, SRB; read-out: CELL IC50 SKBr3
MDA-MB-435 cells = test: Cell proliferation assay (SRB), MDA-MB-435; settings: Homo sapiens, MDA-MB-435, 48 h; EGFR −, Her-2 −; 2 days, SRB; read-out: CELL IC50 MDA-MB-435
SW620 cells = test: Cell proliferation assay (SRB), SW620; settings: Homo sapiens, SW-620, 48 h; EGFR −, Her-2 −; 2 days, SRB; read-out: CELL IC50 SW620

Row | SMILES | GI50 [1] [µM] | IC50 (A431 cells; EGFR +++, Her-2 +, 2 days, SRB) [µg/mL] | IC50 (SK-Br-3 cells) [µg/mL] | IC50 (MDA-MB-435 cells) [µg/mL] | IC50 (SW620 cells) [µg/mL] | IC50 (A431 cells) [µg/mL]
1 | CCOc1cc2ncc(C#N)c(Nc3ccc(Nc4nnc(C(F)(F)F)s4)c(Cl)c3)c2cc1[N+](=O)[O-] [Example 52, 4-(3-chloro-4-{[5-(trifluoromethyl)-1,3,4-thiadiazol-2-yl]amino}anilino)-7-ethoxy-6-nitro-3-quinolinecarbonitrile] | 3.53 | 1.79 (≈ 3.34 µM) | 1.22 (≈ 2.28 µM) | 1.84 (≈ 3.43 µM) | 2.54 (≈ 4.74 µM) | 
2 | CCOc1cc2ncc(C#N)c(Nc3ccc(Nc4nnc(C(F)(F)F)s4)c(Cl)c3)c2cc1NC(=O)/C=C/CN(C)C [Example 53, (E)-N-[4-(3-chloro-4-{[5-(trifluoromethyl)-1,3,4-thiadiazol-2-yl]amino}anilino)-3-cyano-7-ethoxy-6-quinolinyl]-4-(dimethylamino)-2-butenamide] | 1.44 | 0.728 (≈ 1.18 µM) | 0.179 (≈ 0.29 µM) | 0.95 (≈ 1.54 µM) | 1.05 (≈ 1.7 µM) | 
3 | CCOc1cc2ncc(C#N)c(Nc3ccc(Oc4ccncc4)c(Cl)c3)c2cc1[N+](=O)[O-] [Example 54, 4-[3-chloro-4-(4-pyridinyloxy)anilino]-7-ethoxy-6-nitro-3-quinolinecarbonitrile] | > 10.8 | > 5 | > 5 | 2.54 (≈ 5.5 µM) | > 5 | 
4 | CCOc1cc2ncc(C#N)c(Nc3ccc(Oc4ccncc4)c(Cl)c3)c2cc1N [Example 55, 6-amino-4-[3-chloro-4-(4-pyridinyloxy)anilino]-7-ethoxy-3-quinolinecarbonitrile] | > 11.6 | > 5 | > 5 | 1.61 (≈ 3.73 µM) | > 5 | 
5 | CCOc1cc2ncc(C#N)c(Nc3ccc(Oc4ccncc4)c(Cl)c3)c2cc1NC(=O)/C=C/CN(C)C [Example 56, (E)-N-{4-[3-chloro-4-(4-pyridinyloxy)anilino]-3-cyano-7-ethoxy-6-quinolinyl}-4-(dimethylamino)-2-butenamide] | > 9.21 |  | 1.51 (≈ 2.78 µM) | 2.06 (≈ 3.79 µM) | > 5 | 3.27 (≈ 6.02 µM)
6 | COc1cc2ncc(C#N)c(Nc3ccc(NCc4cccnc4)c(Cl)c3)c2cc1[N+](=O)[O-] [Example 57, 4-{3-chloro-4-[(3-pyridinylmethyl)amino]anilino}-7-methoxy-6-nitro-3-quinolinecarbonitrile] | 8.74 | 1.6 (≈ 3.47 µM) | 0.726 (≈ 1.58 µM) | 1.87 (≈ 4.06 µM) | 3.21 (≈ 6.96 µM) | 
7 | CCOc1cc2ncc(C#N)c(Nc3ccc(Nc4nnc(C(F)(F)F)s4)c(Cl)c3)c2cc1N [Example 59, 6-amino-4-(3-chloro-4-{[5-(trifluoromethyl)-1,3,4-thiadiazol-2-yl]amino}anilino)-7-ethoxy-3-quinolinecarbonitrile] | > 9.88 | > 5 | 0.551 (≈ 1.09 µM) | 0.91 (≈ 1.8 µM) | 1.38 (≈ 2.73 µM) | 
8 | CCOc1cc2ncc(C#N)c(Nc3ccc(Cn4ccnc4)c(Cl)c3)c2cc1[N+](=O)[O-] [Example 60, 4-[3-chloro-4-(1H-imidazol-1-ylmethyl)anilino]-7-ethoxy-6-nitro-3-quinolinecarbonitrile] | > 11.1 | > 5 | 2.44 (≈ 5.44 µM) | > 5 | > 5 | 
9 | CCOc1cc2ncc(C#N)c(Nc3ccc(Cn4ccnc4)c(Cl)c3)c2cc1N [Example 61, 6-amino-4-[3-chloro-4-(1H-imidazol-1-ylmethyl)anilino]-7-ethoxy-3-quinolinecarbonitrile] | > 11.9 | > 5 | 0.75 (≈ 1.79 µM) | > 5 | > 5 | 
10 | CCOc1cc2ncc(C#N)c(Nc3ccc(Cn4ccnc4)c(Cl)c3)c2cc1NC(=O)/C=C/CN(C)C [Example 62, (E)-N-{4-[3-chloro-4-(1H-imidazol-1-ylmethyl)anilino]-3-cyano-7-ethoxy-6-quinolinyl}-4-(dimethylamino)-2-butenamide] | 1.87 |  | 0.045 (≈ 0.0849 µM) | 2.1 (≈ 3.96 µM) | 3.8 (≈ 7.17 µM) | 0.95 (≈ 1.79 µM)
11 | CCOc1cc2ncc(C#N)c(Nc3ccc(Sc4nccc(C)n4)c(Cl)c3)c2cc1[N+](=O)[O-] [Example 63, 4-{3-chloro-4-[(4-methyl-2-pyrimidinyl)sulfanyl]anilino}-7-ethoxy-6-nitro-3-quinolinecarbonitrile] | 3.02 | 1.2 (≈ 2.43 µM) | 0.45 (≈ 0.913 µM) | 1.3 (≈ 2.64 µM) | 0.9 (≈ 1.83 µM) | 
12 | CCOc1cc2ncc(C#N)c(Nc3ccc(Sc4nccc(C)n4)c(Cl)c3)c2cc1N [Example 64, 6-amino-4-{3-chloro-4-[(4-methyl-2-pyrimidinyl)sulfanyl]anilino}-7-ethoxy-3-quinolinecarbonitrile] | 6.54 | 1.53 (≈ 3.3 µM) | > 5 | 1.8 (≈ 3.89 µM) | 2 (≈ 4.32 µM) | 
13 | CCOc1cc2ncc(C#N)c(Nc3ccc(Sc4nccc(C)n4)c(Cl)c3)c2cc1NC(=O)/C=C/CN(C)C [Example 65, (E)-N-(4-{3-chloro-4-[(4-methyl-2-pyrimidinyl)sulfanyl]anilino}-3-cyano-7-ethoxy-6-quinolinyl)-4-(dimethylamino)-2-butenamide] | 0.00523 | 0.12 (≈ 0.209 µM) | 0.001 (≈ 0.00174 µM) | 0.3 (≈ 0.523 µM) | 0.2 (≈ 0.348 µM) | 
14 | CCOc1cc2ncc(C#N)c(Nc3ccc(Sc4nc(C)cc(C)n4)c(Cl)c3)c2cc1NC(=O)/C=C/CN(C)C [Example 66, (E)-N-(4-{3-chloro-4-[(4,6-dimethyl-2-pyrimidinyl)sulfanyl]anilino}-3-cyano-7-ethoxy-6-quinolinyl)-4-(dimethylamino)-2-butenamide] | 0.017 | 0.24 (≈ 0.408 µM) | 0.006 (≈ 0.0102 µM) | 0.2 (≈ 0.34 µM) | 0.32 (≈ 0.544 µM) | 
15 | CCOc1cc2ncc(C#N)c(Nc3ccc(Sc4nc(-c5ccccc5)cs4)c(C(F)(F)F)c3)c2cc1[N+](=O)[O-] [Example 67, 7-ethoxy-6-nitro-4-[4-[(4-phenyl-1,3-thiazol-2-yl)sulfanyl]-3-(trifluoromethyl)anilino]-3-quinolinecarbonitrile] | 1.15 | 0.76 (≈ 1.28 µM) | 0.268 (≈ 0.451 µM) | 0.4 (≈ 0.674 µM) | 0.4 (≈ 0.674 µM) | 
16 | CCOc1cc2ncc(C#N)c(Nc3ccc(Sc4nc(-c5ccccc5)cs4)c(C(F)(F)F)c3)c2cc1N [Example 68, 6-Amino-7-ethoxy-4-[4-(4-phenyl-thiazol-2-ylsulfanyl)-3-trifluoromethyl-phenylamino]-quinoline-3-carbonitrile] | 4.47 | > 5 | 0.943 (≈ 1.67 µM) | 2.5 (≈ 4.44 µM) | 3.1 (≈ 5.5 µM) | 
17 | CCOc1cc2ncc(C#N)c(Nc3ccc(Sc4nc(-c5ccccc5)cs4)c(C(F)(F)F)c3)c2cc1NC(=O)/C=C/CN(C)C [Example 69, (E)-N-{3-cyano-7-ethoxy-4-[4-[(4-phenyl-1,3-thiazol-2-yl)sulfanyl]-3-(trifluoromethyl)anilino]-6-quinolinyl}-4-(dimethylamino)-2-butenamide] | 0.622 | 0.3 (≈ 0.445 µM) | > 5 | 0.3 (≈ 0.445 µM) | 0.6 (≈ 0.889 µM) | 
18 | COc1cc2ncc(C#N)c(Nc3ccc(Sc4ncc(-c5ccccc5)s4)c(Cl)c3)c2cc1NC(=O)/C=C/CN(C)C [Example 70, (E)-N-(4-{3-chloro-4-[(5-phenyl-1,3-thiazol-2-yl)sulfanyl]anilino}-3-cyano-7-methoxy-6-quinolinyl)-4-(dimethylamino)-2-butenamide] | 0.191 | 0.22 (≈ 0.351 µM) | 0.01 (≈ 0.0159 µM) | 0.08 (≈ 0.128 µM) | 0.5 (≈ 0.797 µM) | 
19 | COCCN(C)C/C=C/C(=O)Nc1cc2c(Nc3ccc(Sc4nccs4)c(Cl)c3)c(C#N)cnc2cc1OC [Example 71, (E)-N-{4-[3-chloro-4-(1,3-thiazol-2-ylsulfanyl)anilino]-3-cyano-7-methoxy-6-quinolinyl}-4-[(2-methoxyethyl)(methyl)amino]-2-butenamide] | 0.00336 | 0.03 (≈ 0.0504 µM) | 0.002 (≈ 0.00336 µM) | 0.09 (≈ 0.151 µM) | 0.4 (≈ 0.672 µM) | 
20 | CCOc1cc2ncc(C#N)c(Nc3ccc(Sc4nc(-c5ccccc5)cs4)c(Cl)c3)c2cc1NC(=O)/C=C/CN(C)C [Example 72, (E)-N-(4-{3-chloro-4-[(4-phenyl-1,3-thiazol-2-yl)sulfanyl]anilino}-3-cyano-7-ethoxy-6-quinolinyl)-4-(dimethylamino)-2-butenamide] | 0.0312 | 0.24 (≈ 0.374 µM) | 0.006 (≈ 0.00936 µM) | 0.18 (≈ 0.281 µM) | 0.54 (≈ 0.842 µM) | 
21 | CCOc1cc2ncc(C#N)c(Nc3ccc(Sc4nc(C)cc(C)n4)c(Cl)c3)c2cc1[N+](=O)[O-] [Example 74, 4-{3-chloro-4-[(4,6-dimethyl-2-pyrimidinyl)sulfanyl]anilino}-7-ethoxy-6-nitro-3-quinolinecarbonitrile] | > 9.86 | > 5 | > 5 | 4.1 (≈ 8.09 µM) | > 5 | 
22 | CCOc1cc2ncc(C#N)c(Nc3ccc(Sc4nc(C)cc(C)n4)c(Cl)c3)c2cc1N [Example 75, 6-amino-4-{3-chloro-4-[(4,6-dimethyl-2-pyrimidinyl)sulfanyl]anilino}-7-ethoxy-3-quinolinecarbonitrile] | 4.44 | 0.76 (≈ 1.59 µM) | 0.98 (≈ 2.05 µM) | 1.3 (≈ 2.73 µM) | 1.36 (≈ 2.85 µM) | 
